Data from patent US6221914A, “Sulfonamide bridging compounds that inhibit tryptase activity” (Array Biopharma Inc., priority 1998, dated 2001).

Experiments:
Human lung tryptase = assay: Ki determination, human lung tryptase (Tosyl-Gly-Pro-Arg-pNA substrate); format: biochemical; conditions: 50 mM Tris-HCl pH 8.0, 37° C., 1 nM tryptase, 320 μM GPR-pNA; read-out: Experimentally Determined Ki, Tryptase
Experimental: (§1) Protease inhibition was assayed according to published procedures with minor modifications using various proteases and specific chromogenic peptide p-nitroanilide substrates. Assays were performed in Costar ultra-low cluster 96-well microtiter plate (Costar Corning Corp., Cambridge Mass.). Each protease was incubated with various concentrations of the test compound for 15 min. at 37° C. or as otherwise indicated, in specific assay buffer, and the residual activity was then measured by addition of the substrate. p-Nitroaniline produced by the proteolysis was determined by measuring the change in absorbance at 405 nm on a SpectraMAX 340 plate reader (Molecular devices, Sunnyvale, Calif.).
(§2) 1. The inhibition constant, Ki is calculated from individual data points using the equation for a tight-binding inhibitor (See Beith, "Proteinase Inhibitors-Proceedings of 2nd Int. Res. Conference", Fritz, et al. eds, New York, p.4463-4469 (1974)):
(§3) vi /vo [((Ki '+[I]+[E]o)^2 -4 [I]o
(§4) [E]o)^1/2 (Ki '+[I]o -[E]o)]/2[E]o
(§5) where Ki ' is apparent inhibition constant; vi and vo are the inhibited and uninhibited rates, respectively; [I]o and [E]o are the total concentrations of inhibitor and enzyme, respectively.
(§6) [note: [E]o is determined by active site titration of enzyme]
(§7) The Ki values are obtained by correcting Ki ' values for the effect of substrate concentration according to: [formula]
(§8) 2. Other inhibition data (Ki >>[E]o), the Ki is calculated from using the equations for a competitive inhibitor: [formula]
Human lung tryptase purchased from Cortex Biochem (San Leandro, Calif.) was purified further on a Superdex 200 gel-filtration column. The active-site concentration of the enzyme was determined by spectrophotometric titration with 4-nitrophenyl 4'-guanidinobenzoate according to Schwartz, et al., J. Immunol., 114, 2304-2311 (1990). Tryptase activity was measured according to the procedures of Schwartz, et al., J. Biol. Chem., 261, 7372-7379 (1986) (See also, Schwartz, L. B., Methods In Enzymology, 244, 88 (1994)) with minor modifications, using Tosyl-Gly-Pro-Arg-p-nitroanilide ("GPR-pNA", Sigma Chemical Co., St. Louis, Mo., T-1637) as a chromogenic substrate. The reaction was performed in 50 mM Tris-HCl, pH 8.0, containing 150 mM NaCl and 0.02% Triton X-100 at 37° C. in Costar ultra-low cluster 96-well microtiter plates (Costar Corning Corp., Cambridge, Mass.). The amount of pNA produced by tryptase was determined by measuring the change in absorbance at 405 nm on a SpectraMAX 340 plate reader (Molecular devices, Sunnyvale, Calif.). The Km for the substrate was determined by Lineweaver-Burk analysis from initial velocities of substrate hydrolysis. The inhibition assay was carried out in a total volume of 200 μL. Tryptase (30 μL- final concentration 1 nM) was incubated with various concentrations of sample compound (50 μL) to be tested in the above assay buffer for 5 min. The reaction was started by the addition of substrate GPR-pNA (40 μL-final concentration 320 μM), and the residual activity was measured after 15 min. of incubation. The inhibition constant, Ki, was determined by fitting the inhibition data to a two-site competitive binding equation using data analysis program GraphPad PRISM (GraphPad Software, Inc., San Diego, Calif.).
(§9) The inhibition constant (Ki) of the test compounds against each proteolytic enzyme was determined according to Zitnik et al., Biochem. Biophys. Res. Commun. 232, 687-697 (1997)).

Human plasma thrombin = target: T1, Human plasma thrombin (Homo sapiens, UniProt P00734); assay: Ki determination, human plasma thrombin (H-D-Phe-Pip-Arg-pNA); format: biochemical; conditions: 50 mM Tris-HCl, pH 8.3, 100 mM NaCl, 1% BSA; read-out: Experimentally Determined Ki, Thrombin
T1 construct: from tissue; host or cells: human plasma
Experimental: as §1, §2, §3, §4, §5, §6, §7, §8
Human plasma thrombin activity was determined by using H-D-Phe-Pip-Arg-pNA in 50 mM Tris-HCl, pH 8.3, 100 mM NaCl, 1% BSA (See Lottenberg, et al. Meth. Enzymol. 80, 341-361 (1981)).
as §9

r-tissue kallikrein = r-tissue kallikrein (Homo sapiens, UniProt P06870); assay: Ki determination, r-tissue kallikrein (DL-Val-Leu-Arg-pNA); format: biochemical; conditions: 50 mM Tris-HCl, pH 7.8, 200 mM NaCl, 0.05% BSA; read-out: Experimentally Determined Ki, Tissue Kallikrein
r-tissue kallikrein, sequence (P06870 25-262): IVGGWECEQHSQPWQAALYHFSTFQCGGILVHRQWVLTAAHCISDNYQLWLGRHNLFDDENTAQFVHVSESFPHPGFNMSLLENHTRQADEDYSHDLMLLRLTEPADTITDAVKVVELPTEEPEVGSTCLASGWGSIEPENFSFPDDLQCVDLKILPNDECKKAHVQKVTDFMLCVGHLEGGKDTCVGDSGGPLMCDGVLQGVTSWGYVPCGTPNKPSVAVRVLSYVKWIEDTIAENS
Experimental: as §1, §2, §3, §4, §5, §6, §7, §8
(§10) I. Human Plasma and r-Tissue Kallikrein
(§11) Human plasma and r-tissue kallikrein activity were determined in 50 mM Tris-HCl, pH 7.8, 200 mM NaCl, 0.05% BSA by using H-D-Prolyl-Phe-Arg-pNA and DL-Val-Leu-Arg-pNA, respectively (See Lottenberg, et al., Meth. Enzymol. 80, 341-361 (1981)).
as §9

Human plasma kallikrein = target: T2, Human plasma kallikrein (Homo sapiens, UniProt P03952); assay: Ki determination, human plasma kallikrein (H-D-Prolyl-Phe-Arg-pNA); format: biochemical; conditions: 50 mM Tris-HCl, pH 7.8, 200 mM NaCl, 0.05% BSA; read-out: Experimentally Determined Ki, Plasma Kallikrein
T2 construct: from tissue; host or cells: human plasma
T2 sequence (P03952 391-638 limits assumed): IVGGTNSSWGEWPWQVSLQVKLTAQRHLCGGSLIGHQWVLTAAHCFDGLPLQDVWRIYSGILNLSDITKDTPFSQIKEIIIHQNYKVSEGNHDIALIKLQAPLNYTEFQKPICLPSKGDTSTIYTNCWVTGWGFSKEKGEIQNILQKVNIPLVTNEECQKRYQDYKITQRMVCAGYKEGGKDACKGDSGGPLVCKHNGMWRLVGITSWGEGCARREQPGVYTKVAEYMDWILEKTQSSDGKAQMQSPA
T2 sequence (P03952 20-390 partner limits assumed): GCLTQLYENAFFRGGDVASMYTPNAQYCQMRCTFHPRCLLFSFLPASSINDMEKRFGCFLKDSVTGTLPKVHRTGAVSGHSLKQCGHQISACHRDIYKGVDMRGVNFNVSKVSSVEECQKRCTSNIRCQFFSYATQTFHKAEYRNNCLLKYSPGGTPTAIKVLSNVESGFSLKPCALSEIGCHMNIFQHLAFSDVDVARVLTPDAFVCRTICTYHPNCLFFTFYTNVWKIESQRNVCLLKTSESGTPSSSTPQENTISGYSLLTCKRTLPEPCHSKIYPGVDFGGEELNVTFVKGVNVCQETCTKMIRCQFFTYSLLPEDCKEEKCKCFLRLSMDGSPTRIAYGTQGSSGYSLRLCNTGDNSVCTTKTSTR
Experimental: as §1, §2, §3, §4, §5, §6, §7, §8, §10, §11, §9

[1] = tested on: antigen-induced airway hyperresponsiveness in guinea pigs; assay: Guinea pig airway hyperresponsiveness inhibition (ovalbumin-sensitized, histamine bronchoprovocation); format: in vivo, guinea pig (male Hartley); conditions: 1 mg/kg, i.t., 1 hour before antigen challenge; histamine response 6 h after antigen
Experimental: The compounds of the invention were tested for their ability to inhibit hyperresponsiveness in a guinea pig airway hyperresponsiveness screen according to the following protocol:
Male Hartley guinea pigs (Charles River Laboratories Inc., Wilmington, Mass.) were sensitized to ovalbumin by intraperitoneal injection with a 0.5 mL solution of 10 μg ovalbumin and 10 mg aluminum hydroxide in phosphate-buffered saline. […] Seven to nine weeks after the initial injection, the animals were used to evaluate antigen-induced guinea pig airway responses.
In order to evaluate antigen-induced airway hyperresponsiveness in guinea pigs, a baseline histamine bronchoprovocation was initially conducted in unrestrained animals. Guinea pigs (450-600 g) were placed in a whole body plethysmograph (Buxco Electronics, Troy, N.Y.). The animals were exposed to 5 second bursts of histamine aerosol generated by a DeVilbis ultrasonic nebulizer (Somerset, Pa.). […] Three days after the histamine baseline determination, the guinea pigs were again placed in the whole body plethysmograph and challenged with a 3 second aerosolized burst of 0.1% ovalbumin in phosphate-buffered saline. Six hours after antigen exposure, the development of hyperresponsiveness was evaluated by repeating the histamine bronchoprovocation. Comparisons between treatment groups were based on areas under the histamine dose response curves (AUC).
Test compounds were administered by intratracheal instillation at a dose of 1 mg/kg in PBS (pH 7.2), 1 hour before the antigen challenge. After anesthetizing a guinea pig with inhaled methoxyflurane, an endotracheal tube (18 gauge Teflon® sheath) was visually passed into the trachea with the aid of a fiberoptic light source. Test agents (or PBS for control animals) was dosed through the tube followed by a bolus of air to facilitate dispersion.
Two-way analysis of variance (ANOVA) followed by the Fisher PLSD test was used to evaluate areas under the curve ("AUC") for histamine dose responses in guinea pigs. Significance was accepted for p<0.05.

Structure (SMILES)	Ki (Human lung tryptase) [µM]	Ki (Human plasma thrombin) [µM]	Ki (r-tissue kallikrein) [µM]	Ki (Human plasma kallikrein) [µM]	Hyperresponsiveness AUC % Inhibition [1] [%]
N=C(N)c1cccc(S(=O)(=O)NCc2ccc(OCCCCCOc3ccc(CNS(=O)(=O)c4cccc(C(=N)N)c4)cc3)cc2)c1 [Example 41, 1,5-Bis-{4-[(3-carbamimidoyl-benzenesulfonylamino)-methyl]-phenoxy}-pentane]	0.08	> 100	> 100	18	95
N=C(N)c1cccc(S(=O)(=O)NCc2ccc(OCCCCOc3ccc(CNS(=O)(=O)c4cccc(C(=N)N)c4)cc3)cc2)c1 [Example 47, 1,4-Bis-{4-[(3-carbamimidoyl-benzenesulfonylamino)-methyl]-phenoxy}-butane]	0.03	> 100	> 100	2.5	29
N=C(N)c1ccc(S(=O)(=O)NCc2ccc(OCCCOc3ccc(CNS(=O)(=O)c4ccc(C(=N)N)cc4)cc3)cc2)cc1 [Example 50, 1,3-Bis-{4-[(4-carbamimidoyl-benzenesulfonylamino)-methyl]-phenoxy}-propane]	0.8	> 100	> 100	> 100	50
N=C(N)c1ccc(C(=O)NCc2ccc(OCCCCCOc3ccc(CNC(=O)c4ccc(C(=N)N)cc4)cc3)cc2)cc1 [Example 54, 1,5-Bis-{4-[(4-carbamimidoyl-benzenecarbonylamino)-methyl]-phenoxy}-pentane]		> 100	> 100	16	53
N=C(N)c1cccc(C(=O)NCc2ccc(OCCCCCOc3ccc(CNC(=O)c4cccc(C(=N)N)c4)cc3)cc2)c1 [Example 55, 1,5-Bis-{4-[(3-carbamimidoyl-benzenecarbonylamino)-methyl]-phenoxy}-pentane]	0.01	> 100	> 100	11	107
N=C(N)c1ccc(C(=O)NCc2ccc(OCCCCCCOc3ccc(CNC(=O)c4ccc(C(=N)N)cc4)cc3)cc2)cc1 [Example 56, 1,6-Bis-{4-[(4-carbamimidoyl-benzenecarbonylamino)-methyl]-phenoxy}-hexane]		> 100	> 100		62
N=C(N)c1ccc(C(=O)NCc2ccc(OCCCOc3ccc(CNS(=O)(=O)c4cccc(C(=N)N)c4)cc3)cc2)cc1 [Example 86, 4-Carbamimidoyl-N-[4-(3-{4-[(3-carbamimidoyl-benzenesulfonylamino)-methyl]-phenoxy}-propoxy)-benzyl]-benzamide]	0.003	> 100	> 100	1.4	
N=C(N)c1ccc(C(=O)NCc2ccc(OCCCOc3ccc(CNC(=O)c4ccc(CN)cc4)cc3)cc2)cc1 [Example 87, N-[4-(3-{4-[(4-Aminomethyl-benzoylamino)-methyl]-phenoxy}-propoxy)-benzyl]-4-carbamimidoyl-benzamide]	0.002	> 100	> 100	3.5	
N=C(N)c1ccc(C(=O)NCc2ccc(OCC3(COc4ccc(CNC(=O)c5ccc(C(=N)N)cc5)cc4)CCC3)cc2)cc1 [Example 93, 1,1-Bis-{4-[(4-carbamimidoyl-benzoyl-amino)-methyl]-phenoxy-methyl}-cyclobutane]	0.001	> 100	14	3.9	
N=C(N)c1ccc2cc(C(=O)NCc3ccc(OCCOc4ccc(CNC(=O)c5ccc6cc(C(=N)N)ccc6c5)cc4)cc3)ccc2c1 [Example 100, 1,2-Bis-{4-[(6-carbamimidoylnaphthalene-2-carbonylamino)-methyl]-phenoxy}-ethane]	0.0002	> 100	> 100	> 100	
N=C(N)c1ccc2[nH]c(CC(=O)NCc3ccc(OCCCOc4ccc(CNC(=O)Cc5nc6cc(C(=N)N)ccc6[nH]5)cc4)cc3)nc2c1 [Example 107, 2-(5-Carbamimidoyl-1H-benzoimidazol-2-yl)-N-{4,-[3-(4-{2-(5-carbamimidoyl-1H-benzoimidazol-2-yl)acetylaminol-methyl}-phenoxy)-propoxy]-benzyl}-acetamide]	0.012	> 100	> 100	12	
N=C(N)c1ccc2[nH]c(CC(=O)NCc3ccc(OCCCCCOc4ccc(CNC(=O)Cc5nc6cc(C(=N)N)ccc6[nH]5)cc4)cc3)nc2c1 [Example 108]	0.009	> 100	> 100	4.3	68
N=C(N)c1ccc2[nH]c(CC(=O)NCc3ccc(OCCCCOc4ccc(CNC(=O)Cc5nc6cc(C(=N)N)ccc6[nH]5)cc4)cc3)nc2c1 [Example 109]	0.008	> 100	> 100	2.5	
N=C(N)c1ccc2sc(C(=O)NCc3ccc(OCCCOc4ccc(CNC(=O)c5cc6cc(C(=N)N)ccc6s5)cc4)cc3)cc2c1 [Example 117, 1,3-Bis-{4-[(5-carbamidoyl-2-benzthiophenyl-carbamido)-methyl]-phenoxy}-propane]	0.012	> 100	> 100	> 100	
